Measurements published in ChEMBL document CHEMBL1201862, “PubChem BioAssay data set” (2004).
Where a name gives a salt, the structure may show the parent alone.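 1) Cells in 96-well plates. 2) Compound, 48 h, 5 concentrations. 3) Linear interpolation between surrounding doses. 4) Unreached endpoint = highest concentration. At the GI50, growth is halved.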 Active and inactive are the calls of the source. Rule as the data show it: active = GI50 up to about 1.1 µM and inactive = higher.

Tests used:
Assay in all cases: NCI-60 cell line screen, 48 h
TK-10 = system: TK-10
BT-549 = system: BT-549
OVCAR-3 = system: OVCAR-3
HCT-15 = system: HCT-15
EKVX = system: EKVX
HOP-92 = system: HOP-92
UO-31 = system: UO-31
SK-MEL-2 = system: SK-MEL-2
SK-OV-3 = system: SK-OV-3
Malme-3M = system: Malme-3M
UACC-257 = system: UACC-257
RXF 393 = system: RXF 393
SR = system: SR
MOLT-4 = system: MOLT-4
NCI/ADR-RES = system: NCI/ADR-RES
ACHN = system: ACHN
PC-3 = system: PC-3
NCI-H23 = system: NCI-H23
SK-MEL-28 = system: SK-MEL-28
HT-29 = system: HT-29
RPMI-8226 = system: RPMI-8226
KM12 = system: KM12
OVCAR-5 = system: OVCAR-5
CAKI-1 = system: CAKI-1
Hs-578T = system: Hs-578T
K562 = system: K562
CCRF-CEM = system: CCRF-CEM
A498 = system: A498
IGROV-1 = system: IGROV-1
SW-620 = system: SW-620
MDA-MB-435 = system: MDA-MB-435
NCI-H226 = system: NCI-H226
OVCAR-8 = system: OVCAR-8
SN12C = system: SN12C
HOP-62 = system: HOP-62
LOX IMVI = system: LOX IMVI
UACC-62 = system: UACC-62
MDA-MB-231 = system: MDA-MB-231
NCI-H522 = system: NCI-H522
M14 = system: M14
T47D = system: T47D
786-0 = system: 786-0
SK-MEL-5 = system: SK-MEL-5
A549 = system: A549
MDA-N = system: MDA-N
OVCAR-4 = system: OVCAR-4
HCT-116 = system: HCT-116
COLO 205 = system: COLO 205
MCF7 = system: MCF7
DU-145 = system: DU-145
U-251 = system: U-251
SNB-75 = system: SNB-75
SF-268 = system: SF-268
SNB-19 = system: SNB-19
SF-539 = system: SF-539
HL-60 = system: HL-60
SF-295 = system: SF-295
NCI-H460 = system: NCI-H460
HCC 2998 = system: HCC 2998

Measured: GI50

CN1[C@@H]2C[C@@H](OC(=O)[C@H](CO)c3ccccc3)C[C@H]1[C@@H]1O[C@@H]12 [SCOPOLAMINE HYDROBROMIDE]
inactive: TK-10 > 100 µM | BT-549 > 100 µM | OVCAR-3 > 100 µM | EKVX > 100 µM | HOP-92 > 100 µM | UO-31 > 100 µM | SK-MEL-2 > 100 µM | SK-OV-3 > 100 µM | Malme-3M > 100 µM | UACC-257 > 100 µM | RXF 393 > 100 µM | SR > 100 µM | MOLT-4 > 100 µM | NCI/ADR-RES > 100 µM | ACHN > 100 µM | PC-3 > 100 µM | NCI-H23 > 100 µM | SK-MEL-28 > 100 µM | HT-29 > 100 µM | RPMI-8226 > 100 µM | KM12 > 100 µM | OVCAR-5 > 100 µM | CAKI-1 > 100 µM | Hs-578T > 100 µM | K562 > 100 µM | CCRF-CEM > 100 µM | A498 > 100 µM | IGROV-1 > 100 µM | SW-620 > 100 µM | MDA-MB-435 > 100 µM | NCI-H226 > 100 µM | OVCAR-8 > 100 µM | SN12C > 100 µM | HOP-62 > 100 µM | LOX IMVI > 100 µM | UACC-62 > 100 µM | MDA-MB-231 > 100 µM | NCI-H522 > 100 µM | M14 > 100 µM | T47D > 100 µM | 786-0 > 100 µM | SK-MEL-5 > 100 µM | A549 > 100 µM | MDA-N > 100 µM | OVCAR-4 > 100 µM | HCT-116 > 100 µM | COLO 205 > 100 µM | MCF7 > 100 µM | DU-145 > 100 µM
> 100 µM: HCT-15

CCOC(=O)C(=NN(C)c1ncccc1N)C(=O)OCC
inactive: TK-10 79.3 µM | BT-549 > 100 µM | OVCAR-3 30.7 µM | U-251 > 100 µM | SNB-75 > 100 µM | HOP-92 23.3 µM | UO-31 38.8 µM | SK-MEL-2 29.6 µM | SK-OV-3 > 100 µM | Malme-3M 29.1 µM | UACC-257 24.4 µM | RXF 393 84.9 µM | SR 36.2 µM | MOLT-4 21.5 µM | NCI/ADR-RES 53.3 µM | PC-3 62.5 µM | NCI-H23 45.5 µM | SK-MEL-28 > 100 µM | HT-29 65.6 µM | SF-268 > 100 µM | RPMI-8226 30.3 µM | KM12 > 100 µM | CAKI-1 33.3 µM | Hs-578T > 100 µM | K562 25.4 µM | SNB-19 > 100 µM | CCRF-CEM 37.5 µM | A498 39.8 µM | IGROV-1 61 µM | SW-620 27.6 µM | MDA-MB-435 19.3 µM | NCI-H226 21.6 µM | OVCAR-8 38.3 µM | SN12C 24.7 µM | HOP-62 > 100 µM | LOX IMVI 18.3 µM | UACC-62 > 100 µM | MDA-MB-231 25.6 µM | SF-539 22.9 µM | M14 32.5 µM | HL-60 15.1 µM | T47D 25.9 µM | 786-0 29.6 µM | SK-MEL-5 68.4 µM | SF-295 > 100 µM | A549 > 100 µM | MDA-N 34.8 µM | OVCAR-4 97.3 µM | HCT-116 26.4 µM | COLO 205 14.4 µM | MCF7 20.5 µM | NCI-H460 > 100 µM | DU-145 > 100 µM
32.9 µM: HCT-15

CCOC(=O)c1cccc([N+](=O)[O-])c1N
inactive: TK-10 > 100 µM | BT-549 > 100 µM | OVCAR-3 > 100 µM | U-251 > 100 µM | EKVX 6.11 µM | SNB-75 62.1 µM | HOP-92 > 100 µM | UO-31 > 100 µM | SK-MEL-2 > 100 µM | SK-OV-3 > 100 µM | Malme-3M 19.1 µM | UACC-257 > 100 µM | SR > 100 µM | MOLT-4 > 100 µM | NCI/ADR-RES > 100 µM | ACHN > 100 µM | PC-3 > 100 µM | NCI-H23 > 100 µM | SK-MEL-28 > 100 µM | HT-29 > 100 µM | RPMI-8226 > 100 µM | KM12 > 100 µM | OVCAR-5 > 100 µM | CAKI-1 > 100 µM | Hs-578T 41.2 µM | K562 > 100 µM | SNB-19 > 100 µM | CCRF-CEM > 100 µM | A498 66.2 µM | IGROV-1 > 100 µM | SW-620 > 100 µM | MDA-MB-435 > 100 µM | HCC 2998 > 100 µM | NCI-H226 > 100 µM | OVCAR-8 > 100 µM | SN12C > 100 µM | HOP-62 > 100 µM | LOX IMVI > 100 µM | UACC-62 > 100 µM | MDA-MB-231 > 100 µM | SF-539 > 100 µM | NCI-H522 > 100 µM | M14 > 100 µM | HL-60 > 100 µM | T47D > 100 µM | 786-0 > 100 µM | SK-MEL-5 > 100 µM | SF-295 > 100 µM | A549 > 100 µM | MDA-N > 100 µM | OVCAR-4 > 100 µM | HCT-116 > 100 µM | COLO 205 > 100 µM | MCF7 > 100 µM | NCI-H460 > 100 µM | DU-145 > 100 µM
> 100 µM: HCT-15
